Holding throughout (format): in vivo, rat
Assay [1] has as its system Spontaneously Hypertensive Rats (SHR). Nature of the assay: Antihypertensive activity in SHR by co-administration with a diuretic drug (Test Example 1, tail cuff). Conditions: for blood pressure, 1 week / blood pressure, 2 weeks / blood pressure, 1 day: 5 hr after administration; for blood pressure, 1 week / blood pressure, 2 weeks / blood pressure, 1 day / blood pressure, Before admin.: male SHR; for blood pressure, Before admin.: before administration (baseline); for antihypertensive action: SHR. As to the method: Antihypertensive Activity in Spontaneously Hypertensive Rats (SHR) by the Co-administration with a Diuretic Drug Method: […] The respective groups were administered orally with the compound 1(0.1 or 1 mg/kg,p.o.) or HCT (10 mg/kg, p.o.) alone or both drugs simultaneously once a day for two weeks.

For assay [2] the test system is unchanged. Nature of the assay: Antihypertensive activity in SHR by co-administration with a calcium antagonistic drug (Test Example 2, tail cuff). Conditions: for blood pressure, 1 week / blood pressure, 2 weeks / blood pressure, 1 day: 5 hr after administration; for blood pressure, 1 week / blood pressure, 2 weeks / blood pressure, 1 day / blood pressure, Before admin.: male SHR; for blood pressure, Before admin.: before administration (baseline). The protocol:
Antihypertensive Activity in Spontaneously Hypertensive Rats (SHR) by the Co-administration with a Calcium Antagonistic Drug
Method: Male SHR of 20 week old were divided into six groups (five animals per group). The respective groups were administered orally with the compound 1 (0.1 or 1 mg/kg, p.o.) or MDP (3 mg/kg, p.o.) alone or with a mixture of them once a day for two weeks. On the first, 7th and 14th day at 5 hr after the administration, blood pressure of each test animal was measured by the tail cuff method under unanesthesia.

The test system is the same in assay [3]. Nature of the assay: Antihypertensive activity in SHR by co-administration with a diuretic drug (Test Example 3, compound 2, tail cuff). The following applies: for blood pressure, 1 week / blood pressure, 2 weeks / blood pressure, 1 day: 5 hr after administration; for blood pressure, 1 week / blood pressure, 2 weeks / blood pressure, 1 day / blood pressure, Before admin.: male SHR; for blood pressure, Before admin.: before administration (baseline); for antihypertensive action: SHR.
Method: Method: Male SHR of 20 week old were divided into 6 groups (five animals in one group). The respective groups were administered orally with the compound 2 (0.1 or 1 mg/kg,p.o.) or HCT (10 mg/kg, p.o.) alone or both drugs simultaneously once a day for two weeks. On the first, 7th and 14th day at 5 hr after the administration, blood pressure of each test animal was measured by the tail cuff method under unanesthesia.

As to `CCOc1nc2cccc(C(=O)OC(C)OC(=O)OC3CCCCC3)c2n1Cc1ccc(-c2ccccc2-c2nnn[nH]2)cc1` (racemic) [Cpd. 1, (±)-1-(cyclohexyloxycarbonyloxy)ethyl 2-ethoxy-1-[[2′-(1H-tetrazol-5-yl)biphenyl-4-yl]methyl]-1H-benzimidazole-7-carboxylate], in assay [1] (Cpd. 1 0.1 mg/kg/day p.o.), the “blood pressure, 1 week” value came out at 155 ± 3 mmHg; the “blood pressure, 2 weeks” value is reported as 162 ± 3 mmHg; the “blood pressure, 1 day” value is 161 ± 5 mmHg; the “blood pressure, Before admin.” value was 183 ± 2 mmHg. Moreover, in assay [1] (Cpd. 1 1 mg/kg/day p.o.), the “blood pressure, 1 week” value is 138 ± 2 mmHg; the “blood pressure, 2 weeks” value was 135 ± 3 mmHg; the “blood pressure, 1 day” value is recorded as 153 ± 5 mmHg; the “blood pressure, Before admin.” value worked out at 186 ± 2 mmHg. In addition, in assay [1] (compound 1 alone, 0.1 and 1 mg/kg/day), the antihypertensive action result was “dose dependent antihypertensive action”. In addition, in assay [2] (Cpd. 1 0.1 mg/kg/day p.o.), the “blood pressure, 1 week” value stood at 158 ± 4 mmHg; the “blood pressure, 2 weeks” value is 160 ± 4 mmHg; the “blood pressure, 1 day” value is on record as 157 ± 2 mmHg; the “blood pressure, Before admin.” value stood at 190 ± 2 mmHg. In addition, in assay [2] (Cpd. 1 1 mg/kg/day p.o.), the “blood pressure, 1 week” value turned out to be 131 ± 13 mmHg; the “blood pressure, 2 weeks” value is 142 ± 4 mmHg; the “blood pressure, 1 day” value was 148 ± 3 mmHg; the “blood pressure, Before admin.” value was 196 ± 3 mmHg. For the same compound, the antihypertensive effect result in assay [2] (compound 1 alone, 0.1 and 1 mg/kg/day, SHR) is reported as “dose dependent antihypertensive effect”.
For `CCOc1nc2cccc(C(=O)O)c2n1Cc1ccc(-c2ccccc2-c2nc(=O)o[nH]2)cc1` [Cpd. 2, 2-ethoxy-1-[[2′-(2,5-dihydro-5-oxo-1,2,4-oxadiazole-3-yl)biphenyl-4-yl]methyl]-1H-benzimidazole-7-carboxylic acid], in assay [3] (Cpd. 2 0.1 mg/kg/day p.o.), the “blood pressure, 1 week” value stood at 182 ± 6 mmHg; the “blood pressure, 2 weeks” value is 191 ± 8 mmHg; the “blood pressure, 1 day” value is recorded as 187 ± 6 mmHg; the “blood pressure, Before admin.” value was found to be 215 ± 5 mmHg. In assay [3] (Cpd. 2 1 mg/kg/day p.o.), the “blood pressure, 1 week” value is recorded as 161 ± 4 mmHg; the “blood pressure, 2 weeks” value stood at 165 ± 3 mmHg; the “blood pressure, 1 day” value is recorded as 175 ± 5 mmHg; the “blood pressure, Before admin.” value was determined as 219 ± 7 mmHg. Also, the antihypertensive action entry in assay [3] (compound 2 alone, 0.1 and 1 mg/kg/day) was “dose dependent antihypertensive action”.
On to `NS(=O)(=O)c1cc2c(cc1Cl)NCNS2(=O)=O` [HCT, hydrochlorothiazide, reference compound], for which, in assay [1] (HCT 10 mg/kg/day p.o.), the “blood pressure, 1 week” value was determined as 177 ± 3 mmHg; the “blood pressure, 2 weeks” value is given as 181 ± 2 mmHg; the “blood pressure, 1 day” value is given as 178 ± 3 mmHg; the “blood pressure, Before admin.” value amounted to 186 ± 3 mmHg. Besides, the antihypertensive action result in assay [1] (HCT alone, 10 mg/kg/day, p.o.) is given as “did not show antihypertensive action”. In addition, in assay [3] (HCT 10 mg/kg/day p.o.), the “blood pressure, 1 week” value is listed as 190 ± 5 mmHg; the “blood pressure, 2 weeks” value is 195 ± 3 mmHg; the “blood pressure, 1 day” value was 188 ± 5 mmHg; the “blood pressure, Before admin.” value came to 206 ± 5 mmHg. Moreover, the antihypertensive action entry in assay [3] (HCT alone, 10 mg/kg/day, p.o.) was “did not show antihypertensive action”.
Regarding `COC(=O)C1=C(C)NC(C)=C(C(=O)OCCN2CCN(C(c3ccccc3)c3ccccc3)CC2)C1c1cccc([N+](=O)[O-])c1` (centres unmarked) [MDP, manidipine, reference compound], in assay [2] (MDP 3 mg/kg/day p.o.), the “blood pressure, 1 week” value is 132 ± 5 mmHg; the “blood pressure, 2 weeks” value was determined as 136 ± 7 mmHg; the “blood pressure, 1 day” value was determined as 157 ± 2 mmHg; the “blood pressure, Before admin.” value is recorded as 190 ± 5 mmHg.
